Test results from patent EP0115821A1, “Fluoran compounds” (HODOGAYA CHEMICAL CO., LTD., priority 1983, dated 1984).

Assay: Solubility in organic solvents
Format: physicochemical
Settings: at 50°C; for solubility (% by weight) in organic solvents: Hyzole-296: Hyzole-296 (diallylethane compound); for solubility (% by weight) in organic solvents: KMC-113: KMC-113 (alkyl naphthalene compound)
Text: The solubility of the fluoran compounds (B), (C) and (D) of the present invention in organic solvents was compared with that of the above-mentioned conventional fluoran compounds(A-1), (A-2) and (A-3), and the results are shown in Table 1.
Note: KMC-113 is an alkyl naphthalene compound manufactured by Kureha Chemical Industry Co. Ltd., and Hyzole-296 is a diallylethane compound manufactured by Nippon Petrochemical Co. Ltd. Both are organic solvents commonly used for pressure sensitive record sheets.

| SMILES | solubility (% by weight) in organic solvents: Hyzole-296 [% by weight] | solubility (% by weight) in organic solvents: KMC-113 [% by weight] |
| --- | --- | --- |
| CCCCN(CCCC)c1ccc2c(c1)Oc1ccc(NCc3cccc(Cl)c3)cc1C21OC(=O)c2ccccc21 (stereo not drawn) [Compound (C), 2-(3-chlorobenzylamino)-6-di-n-butylamino-fluoran] | 6.30 | 4.20 |
| CCN(CC)c1ccc2c(c1)Oc1ccc(NCc3ccccc3)cc1C21OC(=O)c2ccccc21 (stereo not drawn) [Compound (A-1), 2-benzylamino-6-diethylamino fluoran] | 1.40 | 0.44 |
| CCCCN(CCCC)c1ccc2c(c1)Oc1ccc(NCc3ccc(Cl)cc3)cc1C21OC(=O)c2ccccc21 (stereo not drawn) [Compound (D), 2-(4-chlorobenzylamino)-6-di-n-butylamino-fluoran] | 7.20 | 3.80 |
| CCN(CC)c1ccc2c(c1)Oc1ccc(NCc3ccccc3Cl)cc1C21OC(=O)c2ccccc21 (stereo not drawn) [Compound (A-2), 2-(2-chlorobenzylamino)-6-diethylamino fluoran] | 1.80 | 1.20 |
| CCCCN(CCCC)c1ccc2c(c1)Oc1ccc(NCc3ccccc3Cl)cc1C21OC(=O)c2ccccc21 (stereo not drawn) [Compound (B), 2-(2-chlorobenzylamino)-6-di-n-butylamino-fluoran] | 4.80 | 3.30 |
| CCN(CC)c1ccc2c(c1)Oc1ccc(NCc3ccc(Cl)cc3)cc1C21OC(=O)c2ccccc21 (stereo not drawn) [(A-3), 2-(4-chlorobenzylamino)-6-diethylamino fluoran] | 3.10 | 1.90 |
